Reference: patent US20240082211A1, “SOLUBLE EPOXIDE HYDROLASE AS A TARGET FOR OCULAR DISEASES” (Indiana University Research and Technology Corporation, priority 2017, published 2024)

Legend:
[1] = biological target: T1, soluble epoxide hydrolase (sEH) (Homo sapiens, UniProt P34913); test: Recombinant soluble epoxide hydrolase activity assay (fluorogenic substrate PHOME)
T1 sequence (P34913 1-555): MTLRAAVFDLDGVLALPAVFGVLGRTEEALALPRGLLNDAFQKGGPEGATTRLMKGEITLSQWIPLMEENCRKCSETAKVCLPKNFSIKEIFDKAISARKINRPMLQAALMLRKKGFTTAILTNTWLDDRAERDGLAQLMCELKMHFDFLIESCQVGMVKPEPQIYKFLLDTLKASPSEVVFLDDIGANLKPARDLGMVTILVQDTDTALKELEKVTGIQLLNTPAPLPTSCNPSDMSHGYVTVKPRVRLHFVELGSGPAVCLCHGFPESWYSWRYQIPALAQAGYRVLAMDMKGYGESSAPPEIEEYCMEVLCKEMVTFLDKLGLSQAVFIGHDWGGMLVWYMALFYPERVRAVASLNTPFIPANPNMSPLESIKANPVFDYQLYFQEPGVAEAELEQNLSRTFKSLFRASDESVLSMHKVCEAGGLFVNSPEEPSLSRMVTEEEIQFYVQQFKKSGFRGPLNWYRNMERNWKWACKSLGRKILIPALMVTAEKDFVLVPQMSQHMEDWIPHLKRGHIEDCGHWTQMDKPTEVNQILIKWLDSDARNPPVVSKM
Method: Compounds were dissolved in DMSO (final DMSO concentration=5% (v/v)). Activity was calculated according to:
% Initial Activity=[(FI15−FI0)/(FT15−FT0)]×100%
where FI is the background corrected fluorescence signal obtained in the presence of an inhibitor and FT is the background corrected fluorescence signal obtained for the total activity at times 0 and 15 minutes. IC50 values were calculated using GraphPad Prism v.

sEH = test: Lipid profiling of retina/choroid in L-CNV mice (19,20-EDP/DHDP ratio as sEH activity in vivo); parameters: species or system mouse; settings: 10 μM intravitreal, 3 days post-laser, vs vehicle treated controls
Method: The L-CNV mouse model and injections were performed as previously described. […] Compounds where indicated were injected a single time immediately post-laser treatment, delivered intravitreally using a 33-gauge needle, in a 0.5 μL volume. […] Vehicle alone (PBS+0.5% (v/v) DMSO) was used as negative control. […] Eyes were numbed with tetracaine solution before the injection, and triple antibiotic ointment was used immediately after the injection to prevent infection. Lipid Profiling
Mice were sacrificed 3 days post-laser-treatment, eyes were enucleated and retina/choroid layers were immediately separated and stored at −80° C.

[2] = biological target: T2, sEH activity in L-CNV eye tissue homogenates (Mus musculus, UniProt P34914); test: Tissue-based sEH activity assay using trans-stilbene oxide; type: biochemical; settings: 20 μM, 3 days post-laser-treatment, trans-stilbene oxide substrate
T2 construct: from tissue; host or cells: mouse eye homogenate (C57BL/6J, L-CNV), 100,000 x g supernatant
T2 sequence (P34914 1-554): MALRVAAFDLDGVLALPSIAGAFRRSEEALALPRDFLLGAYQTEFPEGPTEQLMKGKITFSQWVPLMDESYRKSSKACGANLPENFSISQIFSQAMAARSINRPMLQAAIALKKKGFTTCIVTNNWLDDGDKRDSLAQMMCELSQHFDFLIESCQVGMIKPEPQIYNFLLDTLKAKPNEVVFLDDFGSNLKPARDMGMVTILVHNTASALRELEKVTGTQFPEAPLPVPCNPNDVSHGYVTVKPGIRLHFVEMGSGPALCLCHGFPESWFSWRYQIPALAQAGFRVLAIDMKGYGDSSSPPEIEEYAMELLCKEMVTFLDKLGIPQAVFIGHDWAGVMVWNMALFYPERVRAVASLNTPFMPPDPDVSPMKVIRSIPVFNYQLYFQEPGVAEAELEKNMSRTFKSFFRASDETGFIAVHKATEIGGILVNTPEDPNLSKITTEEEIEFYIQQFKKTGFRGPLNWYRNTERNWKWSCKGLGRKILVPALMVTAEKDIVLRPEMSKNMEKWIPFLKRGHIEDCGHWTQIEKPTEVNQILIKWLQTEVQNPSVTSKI
Method: The sEH activity in tissue homogenates was assayed using trans-stilbene oxide (t-SO) as substrate. The assay is based on the hydrolysis of t-SO that is tracked as a decrease in the absorbance at 230 nm. L-CNV was induced as described above. After 3 days, enucleated eyes from both untreated and L-CNV mice were homogenized in 0.2 M sodium phosphate buffer, pH 7.4. To remove microsomal epoxide hydrolase and lenses, tissue extracts were centrifuged at 100,000×g for 30 minutes at 4° C. After protein estimation, 100 μL of tissue homogenates (100 μg/mL) and 98 μL of SH-11037 or 7 dissolved in DMSO/buffer (final 1% (v/v) DMSO) were added to a UV-transparent 96-well plate. After 5 minutes' incubation at room temperature, 2 μL of t-SO in ethanol (100 μM final concentration) was added to assay wells to initiate the reaction. The absorbance was read at 230 nm for 20 minutes. sEH activity was determined as follows:
sEH Activity=[(A0−A20)−(B0−B20)]/mg of protein in a reaction
Where A0 and A20 are absorbance of test wells read at 230 nm at time 0 and 20 minutes respectively, and B0 and B20 are absorbance of background wells read at 230 nm at time 0 and 20 minutes.

human sEH = biological target: T3, human sEH (Homo sapiens, UniProt P34913); test: sEH enzyme kinetics (PHOME hydrolysis, Michaelis-Menten/Dixon analysis); type: biochemical; settings: for type of inhibition of sEH: Lineweaver-Burk and Dixon plots; for Ki: human sEH, PHOME
T3 construct: purchased Cayman Chemical
T3 sequence (P34913 1-555): T1 sequence (P34913 1-555)
Method: Various concentrations of compound dissolved in DMSO (final DMSO concentration=5% (v/v)) and human sEH (60 ng/mL final concentration; Cayman Chemical) in 25 mM bis-Tris-HCl buffer containing 0.1% (w/v) BSA were mixed in a 96 well plate. PHOME at indicated concentrations was added to the wells to initiate the reaction and fluorescence was read with an excitation wavelength of 330 nm and emission wavelength of 465 nm. The standard curve plotted from dilutions of the product, 6-methoxy-2-naphthaldehyde, was used to convert fluorescence reading (RFU/min) to sEH activity (nmol product formed/min). The reaction rate was obtained from the slope of the line from time=5 to 15 minutes for each substrate concentration, and analyzed using GraphPad Prism 7 and SigmaPlot 13.0 to determine Michaelis-Menten kinetic parameters.

[3] = tested on: choroidal neovascularization; settings: cited from earlier work
[4] = tested on: choroidal neovascularization; test: Laser-induced choroidal neovascularization (L-CNV) mouse model, CNV lesion volume; type: in vivo; settings: single intravitreal injection, 14 days post-laser, vs vehicle
[5] = tested on: mouse choroidal sprouting; test: Choroidal sprouting assay (ex vivo); type: cell-based; settings: 0.1, 1, 10 μM, 48 hours, vs vehicle
Method: Benzisoxazole sEH inhibitor 7 was synthesized according to the method as described in Shen et al., Bioorg. […] Sprouting of endothelial cells from choroidal layers was tested as described in Sulaiman et al., Sci. Rep. […] The final concentration of DMSO in each well was 0.2% (v/v). Images were taken using an EVOS-fl digital microscope (AMG, Mill Creek, WA, USA) and data were analyzed as the sprouting distance in four different directions using ImageJ software v.1.48v (http://imagej.nih.gov/ij/).

Ki (human sEH; Dixon plot, n=3) [nM]	Structure (SMILES)	IC50 [1] [nM]	ratio of 19,20-EDP to 19,20-DHDP in retina/choroid (sEH)	sEH activity in L-CNV eye lysates [2]	type of inhibition of sEH (human sEH)	Ki (human sEH) [nM]	combination with anti-VEGF antibody in L-CNV ([3]; WO 2017/091473)	effective doses in L-CNV, intravitreal ([3]; previously shown (Sulaiman et al. 2016; WO 2017/091473)) [µM]	CNV lesion vascular volume [4]	ability of choroidal tissues to form sprouts [5]
–	COc1ccc(CC2COc3cc(OC)c(OC)c(OC)c3C2=O)cc1OC(=O)[C@H](Cc1ccccc1)NC(=O)OC(C)(C)C (stereo partly drawn) [SH-11037, (2S)-2-methoxy-5-((5,6,7-trimethoxy-4-oxochroman-3-yl)methyl)phenyl 2-((tert-butoxycarbonyl)amino)-3-phenylpropanoate]	150	partially normalized	normalized	mixed-type inhibitor	1730 ± 450	synergize	> 1	–	–
19.6	FC(F)(F)c1ccc(Nc2noc3c(C(F)(F)F)cccc23)cc1 [compound 7, 7-(trifluoromethyl)-N-(4-(trifluoromethyl)phenyl) benzo[d]isoxazol-3-amine, reference compound]	9.5	–	normalized	mixed-type inhibitor	–	–	–	dose-dependently suppressed	suppressed
